Holding throughout (format): in vivo, C. elegans
Experiment [1] has as its system protein misfolding and aggregation in transgenic worms. The experiment is described as follows: Corrective assay of protein aggregation (drug from L2 stage onward). The note with it: drug exposure from L2 stage onward; scored at L3 and young adult. The method, then: To see the corrective effect of the candidate drug compounds on protein misfolding and aggregation, five gravid adult worms were placed onto a solvent control plate and grown at 20° C. for approximately 3 days. 35-40 Fl worms at L2 stage were picked and transferred to a drug plate. Thirty worms at L3 stage were counted for aggregate number 8 hours later. Thirty young adults were analyzed 32 hours later.
To calculate the scaled effectiveness of special regimen of drugs on worms based on standardized decrease in protein aggregates. The following formula was used: (A−B)/(A−C)×100%, where
A=number of aggregates for worms growing on solvent control plates
B=number of aggregates for worms grown on the specific drug plate for the entire life of the worms
C=number of aggregates for worms that received exposure from L2 stage (until adulthood)
If the regimen has no effect, the value would equal 0%. Conversely, if the regimen was as effective as raising the worms on the drug for their entire life, the value would equal 100%.

The test system of experiment [2] is Pdat-1::GFP+Pdat-1::torsinA worms (wt torsinA). The experiment is described as follows: 6-OHDA dopaminergic neurodegeneration in worms with wt torsinA. Here is the method:
(§1) C. elegans nematodes were grown at 25° C. on NGM plates as described by Brenner (Brenner, Genetics, 1974, 77: 71-94). Two transgenic C. elegans lines were used for primary screens of the Prestwick small molecule library. A transgenic worm line expressing Pdat-1::GFP; with both wild type (Pdat-1::torsinA) or mutant (Pdat-1:::torsinA(ΔE)). Torsin-A expresses a phenotype that results in visible neurodegeneration after treatment with 6-OHDA. Transgenic worms were plated on drug plates and progeny were studied for morphological changes in the 8 dopaminergic neurons present in C. elegans.
(§2) Drugs were administered to C. elegans according to a standard procedure (Rand and Johnson, Methods Cell Biol, 1995, 48: 187-204) by mixing the solubilized drug with the agar medium on which the worms are grown. […]
(§3) Age-synchronized worms were obtained by treating gravid adults with 2% sodium hypochlorite and 0.5M NaOH to isolate embryos (Lewis Fleming, 1995). […] The worms were then washed and spread onto NGM plates seeded with bacteria (OP50) and scored at time points ranging from 2 to 72 h after 6-OHDA exposure.
(§4) Immediately after 6-OHDA treatment, worms containing the transgenes were selected under a fluorescence dissecting microscope, based on the presence of GFP, and transferred to a fresh NGM plate seeded with OP50. […] For ease of analysis, only the four CEP DA neurons in the head of the worm were scored. […]

Experiment [3] concerns Pdat-1::GFP+Pdat-1::torsinA (ΔE) worms (mutant torsinA). As to the kind of experiment: 6-OHDA dopaminergic neurodegeneration in worms with mutant torsinA. Here is the method:
as §1, §2, §3, §4

Experiment [4] deals with Pdat-1::GFP+Pdat-1::α-synuclein+Pdat-1:: torsinA (ΔE) worms. The experiment is described as follows: α-synuclein toxicity assay, mutant torsinA. Summed up: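 C. elegans lines expressing GFP and α-synuclein in dopamine neurons, with wild-type or ΔE torsinA, exposed to compounds; readout is the share of worms keeping all 4 wild-type CEP dopamine neurons as 4-day adults.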

Counter-ions that a name gives are not always drawn.

Consider `C=N[C@@H](C(=O)N[C@@H]1C(=O)N2[C@@H]1SC(C)(C)[C@@H]2C(=O)O)c1ccccc1` [Compound 235, Metampicillin sodium salt], for which the “corrective effect on protein aggregation” value in experiment [1] is “seem to be beneficial”. Also, the “neuroprotection against 6-OHDA insult” value in experiment [2] (listed as Metampicillin, sodium salt) is given as “provides neuroprotection”; in experiment [2] (listed as metampicillin sodium salt), “only afforded in Pdat-1::GFP+Pdat-1::torsinA worms expressing wt torsinA”; in experiment [3] it was “not protected”. Also, the “enhanced DA neuron survival” value in experiment [4] is on record as “no significant neuroprotection”.

The values above are taken from patent US20070203079A1, “Methods of using small molecule compounds for neuroprotection” (priority 2005, published 2007).
